Measurements taken from EPA's CvTdb concentration-time database.

Legend:
Rat [1] = test: concentration in plasma after dosing; conditions: dosed: Isoeugenol, 70 mg/kg, oral, Male, F344/N
Rat [2] = test: concentration in plasma after dosing; conditions: dosed: Isoeugenol, 70 mg/kg, oral, Male, F344/N; remark: listed apart in the source
Rat [3] = test: concentration in plasma after dosing; conditions: dosed: Isoeugenol, 17 mg/kg, oral, Female, F344/N
Rat [4] = test: concentration in plasma after dosing; conditions: 20 min; dosed: Isoeugenol; 17 mg/kg; oral; Male; F344/N
Rat [5] = test: concentration in plasma after dosing
Rat [6] = test: concentration in plasma after dosing; conditions: dosed: Isoeugenol, 70 mg/kg, oral, Male, F344/N; remark: listed apart in the source
Rat [7] = test: concentration in plasma after dosing; conditions: dosed: Isoeugenol, 17 mg/kg, oral, Male, F344/N
Rat [8] = test: concentration in plasma after dosing; conditions: dosed: Isoeugenol, 17 mg/kg, oral, Female, F344/N; remark: listed apart in the source
Rat [9] = test: concentration in plasma after dosing; conditions: dosed: Isoeugenol, 17 mg/kg, oral, Male, F344/N; remark: listed apart in the source
Rat [10] = test: concentration in plasma after dosing; conditions: dosed: Isoeugenol, 17 mg/kg, oral, Female, F344/N; remark: listed apart in the source
Rat [11] = test: concentration in plasma after dosing; conditions: dosed: Isoeugenol, 70 mg/kg, oral, Male, F344/N; remark: listed apart in the source
Rat [12] = test: concentration in plasma after dosing; conditions: dosed: Isoeugenol, 17 mg/kg, oral, Female, F344/N; remark: listed apart in the source
rat [13] = test: concentration in blood after dosing; conditions: male
Rat [14] = test: concentration in plasma after dosing; conditions: dosed: Tetralin, 20 mg/kg, iv, Female, Harlan Sprague Dawley
Rat [15] = test: concentration in plasma after dosing; conditions: dosed: Tetralin, 20 mg/kg, iv, Female, Harlan Sprague Dawley; remark: listed apart in the source
Rat [16] = test: concentration in plasma after dosing; conditions: dosed: Tetralin, 2 mg/kg, iv, Male, Harlan Sprague Dawley
Rat [17] = test: concentration in plasma after dosing; conditions: dosed: Tetralin, 20 mg/kg, iv, Female, Harlan Sprague Dawley; remark: listed apart in the source
Rat [18] = test: concentration in plasma after dosing; conditions: dosed: Tetralin, 2 mg/kg, iv, Male, Harlan Sprague Dawley; remark: listed apart in the source
Rat [19] = test: concentration in plasma after dosing; conditions: 2 h; dosed: Tetralin; 2 mg/kg; iv; Male; Harlan Sprague Dawley
Rat [20] = test: concentration in plasma after dosing; conditions: dosed: Tetralin, 2 mg/kg, iv, Male, Harlan Sprague Dawley; remark: listed apart in the source
Rat [21] = test: concentration in plasma after dosing; conditions: dosed: Tetralin, 2 mg/kg, iv, Male, F344

C/C=C/c1ccc(O)c(OC)c1 [Isoeugenol]
Conditions	concentration in plasma [ng/mL]
Rat [1], 4 h	339
Rat [1], 20 min	557
Rat [2], 5 h	66.8
Rat [2], 10 min	353
Rat [3], 1 h	129
Rat [3], 5 h	69.7
Rat [6], 2 min	74.6
Rat [6], 6 h	84.5
Rat [7], 0.75 h	32.4
Rat [7], 2 h	77.9
Rat [8], 0.5 h	162
Rat [8], 4 h	33.5
Rat [9], 0.5 h	130
Rat [9], 2 h	35.7
Rat [10], 2 h	23.2
Rat [10], 2 min	69.1
Rat [11], 5 h	106
Rat [11], 5 min	1020
Rat [12], 0.75 h	52.2
Rat [12], 3 h	16.3

Conditions	concentration in plasma [ng/mL]
Rat [4]	105

concentration in plasma [ng/mL], Rat [5], dosed: Isoeugenol, oral, F344/N
Conditions	Female	Male
0.5 h, 17 mg/kg	155	87.8
0.5 h, 70 mg/kg	–	312
0.75 h, 17 mg/kg	73.5	73
1 h, 17 mg/kg	57.7	34.4
1.5 h, 17 mg/kg	–	26.5
1.5 h, 70 mg/kg	–	118
2 h, 17 mg/kg	27.7	–
2 min, 17 mg/kg	48.3	53.9
2 min, 70 mg/kg	–	1160
3 h, 17 mg/kg	48.1	–
3 h, 70 mg/kg	–	216
4 h, 17 mg/kg	35.3	37.5
5 h, 17 mg/kg	50.1	–
5 h, 70 mg/kg	–	199
5 min, 17 mg/kg	346	141
5 min, 70 mg/kg	–	683
6 h, 17 mg/kg	32.7	27.6
6 h, 70 mg/kg	–	150
8 h, 17 mg/kg	38.5	–
8 h, 70 mg/kg	–	362
10 min, 17 mg/kg	161	148
10 min, 70 mg/kg	–	499
20 min, 17 mg/kg	358	86.1
20 min, 70 mg/kg	–	672

C=Cc1ccccc1 [styrene]
rat [13], dosed: styrene, 3000 ppm, dermal, duration: 4 hr, F344
Conditions	concentration in blood [ng/mL]
0.5 h	1480
1 h	2090
2 h	4160
3 h	6070
4 h	7610

c1ccc2c(c1)CCCC2 [Tetralin]
Conditions	concentration in plasma [µg/g]
Rat [14], 0.505 h	5.59
Rat [14], 8 h	0.077
Rat [15], 4 h	0.204
Rat [15], 5 min	20.3
Rat [16], 0.2533 h	0.362
Rat [16], 6 h	0.00512
Rat [17], 0.25 h	11.4
Rat [17], 6 h	0.104
Rat [18], 0.75 h	0.0973
Rat [18], 12 h	0.00173
Rat [20], 0.75 h	0.0729
Rat [20], 12 h	0.00211
Rat [21], 0.25 h	0.386
Rat [21], 6 h	0.0061

concentration in plasma [µg/g], Rat [5], dosed: Tetralin, iv
Conditions	F344	Harlan Sprague Dawley
0.25 h, 20 mg/kg, Female	–	9.76
0.2517 h, 2 mg/kg, Male	0.888	–
0.2533 h, 2 mg/kg, Male	–	0.449
0.5033 h, 20 mg/kg, Female	–	2.55
0.505 h, 2 mg/kg, Male	–	0.207
0.5067 h, 2 mg/kg, Male	0.254	–
0.75 h, 2 mg/kg, Male	0.107	0.0681
0.75 h, 20 mg/kg, Female	–	2.11
1 h, 2 mg/kg, Male	0.11	0.0492
1 h, 20 mg/kg, Female	–	2.1
2 h, 2 mg/kg, Male	0.0262	0.0157
2 h, 20 mg/kg, Female	–	0.596
4 h, 2 mg/kg, Male	0.0114	0.0103
4 h, 20 mg/kg, Female	–	0.2
4 h, 20 mg/kg, Male	0.158	–
6 h, 2 mg/kg, Male	0.00667	0.00504
6.017 h, 20 mg/kg, Female	–	0.105
8 h, 2 mg/kg, Male	0.00488	0.00316
8 h, 20 mg/kg, Female	–	0.0424
12 h, 2 mg/kg, Male	0.00332	0.00151
12 h, 20 mg/kg, Female	–	0.0371
24 h, 2 mg/kg, Male	0.00081	–
24 h, 20 mg/kg, Female	–	0.00866
301 s, 20 mg/kg, Male	21	–
303 s, 20 mg/kg, Female	–	23.1
307 s, 2 mg/kg, Male	–	1.68
322 s, 2 mg/kg, Male	1.64	–

Conditions	concentration in plasma [µg/g]
Rat [19]	0.0164

[3H][3H] [[3]H]
rat [13], dosed: benzo[a]pyrene, Sprague Dawley
Conditions	concentration in blood [nM]
0 h, 1.70 nmol, iv	37.2
0 h, 3.20 nmol, oral	0.288
0 h, 4 nmol, oral	0.112
0.1116 h, 1.70 nmol, iv	12
0.1125 h, 1.70 nmol, iv	18.1
0.1153 h, 1.70 nmol, iv	8.27
0.1252 h, 1.70 nmol, iv	3.03
0.1473 h, 1.70 nmol, iv	12.7
0.1638 h, 4 nmol, oral	0.0356
0.1807 h, 4 nmol, oral	0.233
0.182 h, 1.70 nmol, iv	8.84
0.2047 h, 3.20 nmol, oral	0.443
0.3049 h, 1.70 nmol, iv	3.66
0.3458 h, 1.70 nmol, iv	3.2
0.4131 h, 3.20 nmol, oral	0.622
0.4184 h, 4 nmol, oral	0.364
0.4356 h, 4 nmol, oral	0.0332
0.443 h, 3.20 nmol, oral	0.188
0.6282 h, 4 nmol, oral	0.444
0.6407 h, 1.70 nmol, iv	2.67
0.6517 h, 3.20 nmol, oral	0.22
0.6678 h, 4 nmol, oral	0.0641
0.6836 h, 3.20 nmol, oral	0.741
0.6859 h, 1.70 nmol, iv	1.6
0.8687 h, 4 nmol, oral	0.516
0.9146 h, 1.70 nmol, iv	2.27
0.9355 h, 1.70 nmol, iv	0.81
0.9369 h, 4 nmol, oral	0.0732
0.9512 h, 3.20 nmol, oral	0.245
0.9543 h, 3.20 nmol, oral	0.873
1.04 h, 3.20 nmol, oral	0.279
1.135 h, 3.20 nmol, oral	0.947
1.371 h, 1.70 nmol, iv	1.8
1.4 h, 3.20 nmol, oral	0.297
1.416 h, 1.70 nmol, iv	0.882
1.435 h, 3.20 nmol, oral	1.17
1.639 h, 3.20 nmol, oral	0.347
1.858 h, 1.70 nmol, iv	1.32
1.88 h, 1.70 nmol, iv	0.331
1.886 h, 4 nmol, oral	0.208
1.95 h, 3.20 nmol, oral	1.17
2.33 h, 3.20 nmol, oral	0.383
2.464 h, 3.20 nmol, oral	1.19
2.498 h, 4 nmol, oral	0.817
3.067 h, 3.20 nmol, oral	1.37
3.756 h, 3.20 nmol, oral	0.16
3.763 h, 4 nmol, oral	0.0925
3.824 h, 1.70 nmol, iv	1.31
3.841 h, 1.70 nmol, iv	0.238
4.13 h, 4 nmol, oral	0.9
4.75 h, 3.20 nmol, oral	0.144
4.761 h, 3.20 nmol, oral	1.39
5.695 h, 4 nmol, oral	0.059
5.72 h, 3.20 nmol, oral	0.0876
5.758 h, 3.20 nmol, oral	1.58
5.767 h, 1.70 nmol, iv	0.231
5.852 h, 1.70 nmol, iv	1.2
7.678 h, 3.20 nmol, oral	0.0754
7.696 h, 3.20 nmol, oral	1.38
8.636 h, 1.70 nmol, iv	1.06
8.719 h, 1.70 nmol, iv	0.195
9.661 h, 3.20 nmol, oral	1.58
9.666 h, 3.20 nmol, oral	0.0665
11.66 h, 4 nmol, oral	0.971
11.69 h, 3.20 nmol, oral	1.46
11.71 h, 3.20 nmol, oral	0.0645
11.72 h, 4 nmol, oral	0.0461
12.06 h, 1.70 nmol, iv	0.983
23.76 h, 4 nmol, oral	0.0211
23.79 h, 3.20 nmol, oral	0.0341
23.82 h, 3.20 nmol, oral	1.25
23.82 h, 4 nmol, oral	0.858
28.68 h, 1.70 nmol, iv	0.0889
29.09 h, 1.70 nmol, iv	0.82
31.89 h, 3.20 nmol, oral	0.0299
153 s, 1.70 nmol, iv	38.5
172 s, 1.70 nmol, iv	16.8
225 s, 4 nmol, oral	0.176
238 s, 3.20 nmol, oral	0.0632
265 s, 1.70 nmol, iv	26.5
278 s, 1.70 nmol, iv	26.9
297 s, 3.20 nmol, oral	0.492
321 s, 3.20 nmol, oral	0.107
331 s, 4 nmol, oral	0.194
